Where two headings read alike, the source gives them in different places.
Key:
[1] = tested on: GM3 expression on the cell surface, C32 human melanoma cells; experiment: cell based phenotypic assay, cell surface GM3 by antibody mediated immunofluorescence, C32 (GM3 C32 IC50); details: Homo sapiens, 50% inhibition of GM3 expression on the cell surface
How it was run: (§1)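 B16 mouse and C32 human melanoma cells; cell-surface GM3 measured by antibody-mediated immunofluorescence, giving IC50.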

[2] = tested on: GM3 expression on the cell surface, B16 mouse melanoma cells; experiment: cell based phenotypic assay, cell surface GM3 by antibody mediated immunofluorescence, B16 (GM3 B16 IC50); details: Mus musculus, 50% inhibition of GM3 expression on the cell surface
How it was run: as §1

[3] = molecular target: T1, glucosylceramide synthase (Homo sapiens, UniProt Q16739); experiment: microsomal assay measuring conversion of ceramide to glucosylceramide by HPLC (GCS IC50); format: biochemical; details: concentration causing 50% inhibition of glucosylceramide synthase activity
T1 construct: Microsomes were isolated from A375 human melanoma cells; endogenous in cells; host or cells: A375 human melanoma cells (microsomal fraction, 100,000 g pellet)
T1 sequence (Q16739 1-394): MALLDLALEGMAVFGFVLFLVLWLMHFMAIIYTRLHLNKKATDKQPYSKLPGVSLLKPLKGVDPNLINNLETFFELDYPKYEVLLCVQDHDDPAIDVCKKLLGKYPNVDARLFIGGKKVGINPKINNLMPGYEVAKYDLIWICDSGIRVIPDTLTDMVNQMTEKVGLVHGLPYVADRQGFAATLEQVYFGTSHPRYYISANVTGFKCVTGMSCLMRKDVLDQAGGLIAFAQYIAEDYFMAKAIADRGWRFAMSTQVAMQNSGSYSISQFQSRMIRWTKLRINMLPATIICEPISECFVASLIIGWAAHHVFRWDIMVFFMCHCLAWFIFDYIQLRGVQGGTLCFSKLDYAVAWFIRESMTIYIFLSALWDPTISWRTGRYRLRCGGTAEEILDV
How it was run: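 IC50 is the compound concentration halving glucosylceramide synthase activity. Activity was measured in microsomes, with HPLC quantifying glucosylceramide formed from ceramide.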

C32 human melanoma cells = experiment: cell viability in the C32 cell-based assay (Viability, C32 IC50); details: Homo sapiens, concentration causing 50% cell death, values greater than 10 represent a lack of cell death
How it was run: (§2)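 Viability readouts were run alongside the GM3 cell-surface assay in the same B16 and C32 cultures. A figure above 10 indicates no cell death.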

B16 mouse melanoma cells = experiment: cell viability in the B16 cell-based assay (Viability, B16 IC50); details: Mus musculus
How it was run: as §2

[4] = read-out: GM3 C32 IC50, C32 human melanoma cells
[5] = read-out: GM3 B16 IC50, B16 mouse melanoma cells
[6] = C32, read-out: Viability, C32 IC50, C32 cells
[7] = B16, read-out: Viability, B16 IC50
[8] = C32 human melanoma cells, read-out: GM3 C32 IC50
[9] = B16 mouse melanoma cells, read-out: GM3 B16 IC50
[10] = C32, C32 cells, read-out: Viability, C32 IC50
[11] = B16, B16 cells, concentration causing 50% cell death, values greater than 10 represent a lack of cell death, read-out: Viability, B16 IC50

| IC50 [1, 8] [nM] | IC50 [2, 9] [nM] | Compound | IC50 [1, 4] [nM] | IC50 [2, 5] [nM] | IC50 [3] [nM] | IC50 (C32 human melanoma cells; [6]) [nM] | IC50 (B16 mouse melanoma cells; [7]) [µM] | IC50 (C32 human melanoma cells; [10]) [nM] | IC50 (B16 mouse melanoma cells; [11]) [µM] |
| --- | --- | --- | --- | --- | --- | --- | --- | --- | --- |
| – | – | CC(C)(NC(=O)OC1CN2CCC1CC2)c1ccc(-c2ccc(OCCn3cccn3)cc2)cc1 (stereo not drawn) [Example 179, Quinuclidin-3-yl (2-(4′-(2-(1H-pyrazol-1-yl)ethoxy)-[1,1′-biphenyl]-4-yl)propan-2-yl)carbamate] | 4.99 | 95.2 | 6.73 | 3160 | 8.73 | – | – |
| 0.587 | 5.15 | CC(C)(NC(=O)NC1(C)CCN2CCC1CC2)c1ccc(-c2ccc(OCCn3cccn3)cc2)cc1 (stereo not drawn) [Example 181, 1-(2-(4′-(2-(1H-Pyrazol-1-yl)ethoxy)-[1,1′-biphenyl]-4-yl)propan-2-yl)-3-(4-methyl-1-azabicyclo[3.2.2]nonan-4-yl)urea] | – | – | 2.33 | – | – | 1000 | 1 |
| – | – | CC(C)(NC(=O)OC1CN2CCC1CC2)c1ccc(-c2ccc(OCCn3ccnn3)cc2)cc1 (stereo not drawn) [Example 182, Quinuclidin-3-yl (2-(4′-(2-(1H-1,2,3-triazol-1-yl)ethoxy)-[1,1′-biphenyl]-4-yl)propan-2-yl)carbamate] | 13.1 | 388 | 43.1 | 1000 | 3.16 | – | – |
| 3.87 | 99.9 | CC(C)(NC(=O)NC1(C)CCN2CCC1CC2)c1ccc(-c2ccc(OCCn3ccnn3)cc2)cc1 (stereo not drawn) [Example 185, 1-(2-(4′-(2-(1H-1,2,3-Triazol-1-yl)ethoxy)-[1,1′-biphenyl]-4-yl)propan-2-yl)-3-(4-methyl-1-azabicyclo[3.2.2]nonan-4-yl)urea] | – | – | 12.9 | – | – | 1000 | 3.16 |
| 7.74 | 106 | CC(C)(NC(=O)OC1CCN2CCC1CC2)c1ccc(-c2ccc(OCCCn3ccnn3)cc2)cc1 (stereo not drawn) [Example 187, 1-Azabicyclo[3.2.2]nonan-4-yl (2-(4′-(3-(1H-1,2,3-triazol-1-yl)propoxy)-[1,1′-biphenyl]-4-yl)propan-2-yl)carbamate] | – | – | 20.2 | – | – | 1000 | ≥ 10 |
| 77.4 | 365 | CC(C)(NC(=O)N1CCN2CCC1CC2)c1ccc(-c2ccc(OCCCn3ccnn3)cc2)cc1 [Example 188, N-(2-(4′-(3-(1H-1,2,3-Triazol-1-yl)propoxy)-[1,1′-biphenyl]-4-yl)propan-2-yl)-1,4-diazabicyclo[3.2.2]nonane-4-carboxamide] | – | – | 597 | – | – | 1000 | ≥ 10 |
| – | – | CC(C)(NC(=O)OC1CN2CCC1CC2)c1ccc(-c2ccc(OCCCC#N)cc2)cc1 (stereo not drawn) [Example 189, Quinuclidin-3-yl (2-(4′-(3-cyanopropoxy)-[1,1′-biphenyl]-4-yl)propan-2-yl)carbamate] | 3.22 | 86.5 | 9.57 | 8470 | ≥ 10 | – | – |
| – | – | CC(C)(NC(=O)OC1CN2CCC1CC2)c1ccc(-c2ccc(OCC#N)cc2)cc1 (stereo not drawn) [Example 190, Quinuclidin-3-yl (2-(4′-(cyanomethoxy)-[1,1′-biphenyl]-4-yl)propan-2-yl)carbamate] | 0.775 | 47.7 | 2.59 | 1000 | ≥ 10 | – | – |
| – | – | CC1(COc2ccc(-c3ccc(C(C)(C)NC(=O)OC4CN5CCC4CC5)cc3)cc2)COC1 (stereo not drawn) [Example 191, Quinuclidin-3-yl (2-(4′-((3-methyloxetan-3-yl)methoxy)-[1,1′-biphenyl]-4-yl)propan-2-yl)carbamate] | 3.24 | 71.8 | 7.2 | 1000 | 5.25 | – | – |
| 1.86 | 81.6 | CC1(COc2ccc(-c3ccc(C(C)(C)NC(=O)OC4CCN5CCC4CC5)cc3)cc2)COC1 (stereo not drawn) [Example 192, 1-Azabicyclo[3.2.2]nonan-4-yl (2-(4′-((3-methyloxetan-3-yl)methoxy)-[1,1′-biphenyl]-4-yl)propan-2-yl)carbamate] | – | – | 5.69 | – | – | 1000 | 5.84 |
| 44.7 | 318 | CC1(COc2ccc(-c3ccc(C(C)(C)NC(=O)N4CCN5CCC4CC5)cc3)cc2)COC1 [Example 193, N-(2-(4′-((3-Methyloxetan-3-yl)methoxy)-[1,1′-biphenyl]-4-yl)propan-2-yl)-1,4-diazabicyclo[3.2.2]nonane-4-carboxamide] | – | – | 297 | – | – | ≥ 10000 | ≥ 10 |
| – | – | CC(C)(NC(=O)OC1CN2CCC1CC2)c1ccc(-c2ccc(OCCC3COC3)cc2)cc1 (stereo not drawn) [Example 194, Quinuclidin-3-yl (2-(4′-(2-(oxetan-3-yl)ethoxy)-[1,1′-biphenyl]-4-yl)propan-2-yl)carbamate] | 4.06 | 115 | 10.5 | 1000 | 9.93 | – | – |
| 1.01 | 94.8 | CC(C)(NC(=O)OC1CCN2CCC1CC2)c1ccc(-c2ccc(OCCC3COC3)cc2)cc1 (stereo not drawn) [Example 195, 1-Azabicyclo[3.2.2]nonan-4-yl (2-(4′-(2-(oxetan-3-yl)ethoxy)-[1,1′-biphenyl]-4-yl)propan-2-yl)carbamate] | – | – | 5.67 | – | – | 100 | 8.03 |
| 28.3 | 274 | CC(C)(NC(=O)N1CCN2CCC1CC2)c1ccc(-c2ccc(OCCC3COC3)cc2)cc1 [Example 196, N-(2-(4′-(2-(Oxetan-3-yl)ethoxy)-[1,1′-biphenyl]-4-yl)propan-2-yl)-1,4-diazabicyclo[3.2.2]nonane-4-carboxamide] | – | – | 538 | – | – | 1000 | ≥ 10 |
| – | – | COCCOCc1ccc(-c2ccc(C(C)(C)NC(=O)OC3CN4CCC3CC4)cc2)cc1 (stereo not drawn) [Example 197, Quinuclidin-3-yl (2-(4′-((2-methoxyethoxy)methyl)-[1,1′-biphenyl]-4-yl)propan-2-yl)carbamate] | 9.67 | 309 | 32.2 | ≥ 10000 | ≥ 10 | – | – |
| 6.16 | 220 | COCCOCc1ccc(-c2ccc(C(C)(C)NC(=O)OC3CCN4CCC3CC4)cc2)cc1 (stereo not drawn) [Example 200, 1-Azabicyclo[3.2.2]nonan-4-yl (2-(4′-((2-methoxyethoxy)methyl)-[1,1′-biphenyl]-4-yl)propan-2-yl)carbamate] | – | – | 24 | – | – | 1000 | ≥ 10 |

| Compound | IC50 [1, 8] [nM] | IC50 [2, 9] [nM] | IC50 [1, 4] [nM] | IC50 [2, 5] [nM] | IC50 [3] [nM] | IC50 (C32 human melanoma cells; [6]) [nM] | IC50 (B16 mouse melanoma cells; [7]) [µM] | IC50 (C32 human melanoma cells; [10]) [nM] | IC50 (B16 mouse melanoma cells; [11]) [µM] |
| --- | --- | --- | --- | --- | --- | --- | --- | --- | --- |
| CC(C)(NC(=O)NC1(C)CN2CCC1CC2)c1ccc(-c2ccc(OCCn3cccn3)cc2)cc1 (stereo not drawn) [Example 180, 1-(2-(4′-(2-(1H-Pyrazol-1-yl)ethoxy)-[1,1′-biphenyl]-4-yl)propan-2-yl)-3-(3-methylquinuclidin-3-yl)urea] | 1.81 | 46.3 | – | – | 5.3 | – | – | 3160 | 3.16 |
| CC(C)(NC(=O)NC1(C)CN2CCC1CC2)c1ccc(-c2ccc(OCCn3ccnn3)cc2)cc1 (stereo not drawn) [Example 183, 1-(2-(4′-(2-(1H-1,2,3-Triazol-1-yl)ethoxy)-[1,1′-biphenyl]-4-yl)propan-2-yl)-3-(3-methylquinuclidin-3-yl)urea] | 10.2 | 969 | – | – | 31.6 | – | – | 2510 | 5.62 |
| CCC1(NC(=O)NC(C)(C)c2ccc(-c3ccc(OCCn4ccnn4)cc3)cc2)CN2CCC1CC2 (stereo not drawn) [Example 184, 1-(2-(4′-(2-(1H-1,2,3-Triazol-1-yl)ethoxy)-[1,1′-biphenyl]-4-yl)propan-2-yl)-3-(3-ethylquinuclidin-3-yl)urea] | 3.46 | 188 | – | – | 21.1 | – | – | 1000 | 3.16 |
| COCCOCc1ccc(-c2ccc(C(C)(C)NC(=O)NC3(C)CN4CCC3CC4)cc2)cc1 (stereo not drawn) [Example 198, 1-(2-(4′-((2-Methoxyethoxy)methyl)-[1,1′-biphenyl]-4-yl)propan-2-yl)-3-(3-methylquinuclidin-3-yl)urea] | 3.24 | 118 | – | – | 25.2 | – | – | ≥ 10000 | ≥ 10 |
| CCC1(NC(=O)NC(C)(C)c2ccc(-c3ccc(COCCOC)cc3)cc2)CN2CCC1CC2 (stereo not drawn) [Example 199, 1-(3-Ethylquinuclidin-3-yl)-3-(2-(4′-((2-methoxyethoxy)methyl)-[1,1′-biphenyl]-4-yl)propan-2-yl)urea] | 1.8 | 31.7 | – | – | 14.7 | – | – | 1000 | 1 |
